One assay relates to K562 cells. The protocol: It is known from the literature that sodium butyrate derives K562 cells into the erythroid differentiation program (Sutherland et al. 1986). Base on such an observation, the ability of 1,3-cPP alone or in combination with sodium butyrate may trigger the erythroid differentiation program manifested by hemoglobin production.
K562 cells were incubated for 5 days in the presence or absence of 10 or 50 μM 1,3cPP and 1 mM butyric acid as a differentiating agent. Quantitative measurements of hemoglobin production was determined by staining of lysed cells with benzidine-peroxide reagent. The benzidine-peroxide reagent was prepared by dissolving 3,3′,5,5′-tetramethyl benzidine in 90% acetic acid and mixing with an equal volume of freshly prepared 1% hydrogen peroxide. Cell lysate, obtained by hypotonic lysing of 5×10^4 cells in 0.1 ml distilled water, was added to 0.1 ml benzidine reagent and incubated at room temperature for 10 minutes in the dark. Absorbance was measured at 515 nm and was taken as a relative index of the hemoglobin level.

Assay [1] deals with progesterone receptor (PR) in MCF-7 cells. Nature of the assay: Western blot analysis of PR level in MCF-7 cells. To be noted: MCF-7 cells treated for 9 days (FIG. 10). The assay is classed as cell-based, human. The protocol:
In an analogous manner, a set of experiments was preformed with MCF-7 cells for determining the level of PR upon incubation with varying concentrations of 1,3-cPP for a period of up to 11 days. Similar to the augmentation observed for ER-α, an increase of up to 2.8 and 2.2 fold expression of the wild type PR (MW 98,000), was observed from 10 μM 1,3-cPP and upwards on days 8 and 11, respecively (FIGS. 3A-D).
(§1) Breast Cancer Cells. The human breast cancer MCF-7 cell line were obtained from Prof. Hadassa Degani, of Weizmann Institute of Science, Rehovot, Israel. The cells were grown as monolayers in high glucose DMEM supplemented with 6% fetal calf serum and combined antibiotics. Human breast cancer T47D cells, clones 8 (ER^loPR^lo) and 11 (ER^+PR^+) were obtained from Prof Iafa Keydar, Tel-Aviv university and were grown in DMEM supplemented with 10% fetakl calf serum antibiotics. K562 erythroleukemia cells were obtained from Dr. Alfa Peled of Weizmann Institute of Science, Rehovot, Israel. These cells were grown in RPMI 1640 containing 10% fetal calf serum and antibiotics. All lines were grown at 37° C. in the presence of 5% CO2. The absence of Mycoplasma contamination was monitored by a Mycotrim TC test (Irvine Scientific, Santa Ana, Calif.) carried out once every 3 months.
(§2) For ER-α protein analysis, MCF-7 and T47D cells were cultured in 60×15 mm petri dishes. From the second day of culture onward, the cells were treated with various concentrations of 1,3cPP for up to 14 days. At the end of the incubation period, the medium was aspirated and the cells were washed 3 times with cold (4° C.) PBS. […] The protein concentration in each sample (1.5-4 mg/ml) was determined using the Coomassie Protein Assay (Pierce, Rockford, Ill.) according to the manufacturer's instructions. […] Bound antibodies were detected by horseradish peroxidase-conjugated goat anti-rabbit IgG, (Transduction Laboratories, Lexington, Ky. using the ECL detection method. Band densities were quantified by densitometry (Biorad model GS-690 Imaging densitometer) using Molecular Analyst software.

Assay [2] concerns Casein Kinase in MCF-7 cells. Description: Casein Kinase level in MCF-7 cells. The assay is classed as cell-based, human. The note with it: MCF-7 cells treated for 9 days (FIG. 11).
The test system of assay [3] is estrogen receptor-α (ER-α) in MCF-7 cells. Nature of the assay: Western blot analysis of ER-α level in MCF-7 cells. The assay is classed as cell-based, human. The note with it: MCF-7 cells treated for 9 days (FIG. 9). The protocol:
Turning to FIG. 1 there are shown Western blot analyses showing the effect of 1,3cPP on the expression level of ER-α. In the ER-α assay, MCF-7 cells were incubated with 1-100 μM 1,3cPP for up to 14 days. The analysis indicates a relative increase in the level of wild type ER-α receptor (MW 70,000) with either an increase in 1,3cPP concentration or time of incubation. On days 6 and 14, a nearly 2-fold and 3-fold increase were observed, respectively (FIGS. 1A, C, D, F). […] This band could be related to one of deleted exons D3-4 (MW 49,000), D4 (MW 54,000), or D7 (MW 51,000) ER-α variants.
as §1
as §2, with “PBS. The cells were then gently scraped off using a rubber policeman in 0.25 ml of lysis buffer composed of 50 mM β-glycerophosphate, 1 mM DTT, 1.5 mM EGTA, 1 mM EDTA, 1% (Octylphenoxy)polyethoxyethanol (IGEPAL, Sigma, St. Louis, Mo.), a nonionic detergent, and a cocktail of protease inhibitors, including 1 mM phenylmethylsulfonyl fluoride (PMSF), 1 mM benzamidine, 10 μg/ml aprotinin, 10 μg/ml leupeptin, and 2 μg/ml pepstanin, as well as 1 mM sodium orthovanadate (Sigma, St. Louis, Mo.) as a phosphatase inhibitor.” for “PBS.”
A general note: In western blotting, separated proteins are transferred to a membrane and probed.

On to `CCCC(=O)[O-].[Na+]` [sodium butyrate, reference compound], for which the hemoglobin synthesis entry in the assay on K562 cells is listed as “only a small effect”.

For the compound `NC1(CO)COP(=O)(O)OC1` (stereo not shown) [Example 18, 5-Amino-5-hydroxymethyl-2-oxo-2λ5-[1,3,2]dioxaphosphi-nan-2-ol], the progestrone receptor level entry in assay [1] is on record as “promotion of synthesis”. In assay [2], the “Casein Kinase level” value is reported as “promotion of Casein Kinase levels”. Besides, the “Estrogen receptor alpha level” value in assay [3] is recorded as “promotion of synthesis”.

The values are drawn from US20060014726A1, “Derivatives of cyclic1, 3- propanediol phosphate and their action in differentiation therapy” (priority 2002, published 2006).
